Melting point data for 25 compounds are collected here from patent US7115750B1, “Melanin concentrating hormone antagonist” (Takeda Pharmaceutical Company Limited, priority 1999, dated 2006).

The melting point is the temperature, or range, at which the solid turns liquid.

Compound `Cc1cc(C(=O)Nc2ccc3c(c2)CCC(CN(C)C)C3)ccc1Br` (stereo not shown) [Example 25, 4-Bromo-N-[6[(N,N-dimethylamino)methyl]-5,6,7,8-tetrahydro-2-naphthalenyl]-3-methylbenzamide] gave a melting point of 154 to 155 °C. For `CCc1ccc(-c2ccc(C(=O)Nc3ccc4c(c3)CCC(CN(C)C)C4)cc2)cc1` (stereo not shown) [Example 11, (4′-Ethylbiphenyl-4-yl)-N-[2-(N,N-dimethylamino)methyl-6-tetralinyl]carboxamide] the value was 137 to 138 °C. In the case of `CN(C)CC1COc2ccc(NC(=O)c3ccc(-c4ccccc4)cc3)cc2O1` (stereo not shown) [Example 104, N-[3-[(Dimethylamino)methyl]-2,3-dihydro-1,4-benzodioxin-6-yl][1,1′-biphenyl]-4-carboxamide] it was 124 to 126 °C; in that of `CN(C)CC1CCc2cc(NC(=O)c3ccc(-c4ccc(Cl)c(Cl)c4)cc3)ccc2C1` (stereo not shown) [Example 16, 3′,4′-Dichloro-N-[6-[(N,N-dimethylamino)methyl]-5,6,7,8-tetrahydro-2-naphthalenyl][1,1′-biphenyl]-4-carboxamide], 143 to 145 °C; in that of `CN(C)CC1CCc2cc(NS(=O)(=O)c3ccc(-c4ccccc4)cc3)ccc2C1.Cl` (stereo not shown), 168 to 170 °C. In the case of `CN(C)CC1CCc2cc(NC(=O)c3ccc4c(c3)S(=O)(=O)c3ccccc3C4=O)ccc2C1` (stereo not shown) [Example 7, N-[2-(N,N-Dimethylamino)methyl-6-tetralinyl]-9,10,10-trioxo-9,10-dihydro-101^6-thioxanthene-3-carboxamide] it was 222 to 223 °C (dec.); in that of `CCC1=C(CN(C)C)CCc2cc(NC(=O)c3ccc(-c4ccc(Cl)cc4)cc3)ccc21` [Example 112, 4′-Chloro-N-[6-[(dimethylamino)methyl]-S-ethyl-7,8-dihydro-2-naphthalenyl][1,1′-biphenyl]-4-carboxamide], 201 to 204 °C. In turn, `O=C(Nc1ccc2c(c1)CCC(CN1CCCC1)C2)c1ccc(-c2ccccc2)cc1` (stereo not shown) [Example 96, N-[6-(1-Pyrrolidinylmethyl)-5,6,7,8-tetrahydro-2-naphthalenyl][1,1′-biphenyl]-4-carboxamide] displayed a melting point of 144 to 146 °C. In the case of `CN(C)CCNC(=O)Cc1ccc(NC(=O)c2ccc(NC(=O)c3ccccc3)cc2)cc1` [Example 192, 4-(Benzoylamino)-N-[4-[2-[[2-(dimethylamino)ethyl]amino]-2-oxoethyl]phenyl]benzamide] it was 220 to 221 °C; in that of `CN(C)CC1=Cc2ccc(NC(=O)c3ccc(-c4ccc(F)cc4)cc3)cc2CC1` [Example 42, 4′-Fluoro-N-[6-[(N,N-dimethylamino)methyl]-7,8-dihydro-2-naphthalenyl][1,1′-biphenyl]-4-carboxamide], 190 to 193 °C; in that of `CN(C)CC1CCc2cc(NC(=O)N3CCC(c4ccc(F)cc4)CC3)ccc2C1O` (stereo not shown) [Example 203, N-[6-[(Dimethylamino)methyl]-5-hydroxy-5,6,7,8-tetrahydro-2-naphthalenyl]-4-(4-fluorophenyl)-1-piperidinecarboxamide], 160 to 163 °C. Consider `COc1ccc(-c2ccc(C(=O)Nc3ccc4c(c3)CCC(CN3CCCC3)=C4C)cc2)cc1` [Example 200, 4′-Methoxy-N-[6-(1-pyrrolidinylmethyl)-5-methyl-7,8-dihydro-2-naphthalenyl][1,1′-biphenyl]-4-carboxamide], for which the melting point was in the range of 179 to 180 °C. In the case of `CN(C)CCNC(=O)Cc1ccc(NC(=O)Cc2ccccc2Cc2ccccc2)cc1` [Example 186, 2-(2-Benzylphenyl)-N-[4-[2-[[2-(dimethylamino)ethyl]amino]-2-oxoethyl]phenyl]acetamide] it was 115 to 117 °C; in that of `O=C(Nc1ccc2c(c1)CCC(CN1CCCC1)=C2)c1ccc(-c2ccc(F)cc2F)cc1` [Example 103, 2′,4′-Difluoro-N-[6-(1-pyrrolidinylmethyl)-7,8-dihydro-2-naphthalenyl][1,1′-biphenyl]-4-carboxamide], 165 to 167 °C. For `CN(C)CCNC(=O)Cc1ccc(NC(=O)c2ccc3c(c2)S(=O)(=O)c2ccccc2C3=O)cc1` [Example 194, N-[4-[2-[[2-(Dimethylamino)ethyl]amino]-2-oxoethyl]phenyl]-9,10,10-trioxo-9,10-dihydro-10λ^6-thioxanten-3-carboxamide] the value was 162 to 163 °C (dec.); for `O=C(Nc1ccc2c(c1)CCC(CN1CCCC1)C2)c1ccc(-c2ccc(Cl)cc2)cc1` (stereo not shown) [Example 98, 4′-Chloro-N-[6-(1-pyrrolidinylmethyl)-5,6,7,8-tetrahydro-2-naphthalenyl][1,1′-biphenyl]-4-carboxamide], 206 to 209 °C. In the case of `CN(C)CC1CCc2cc(NC(=O)c3ccc(-c4ccc(C#N)cc4)cc3)ccc2C1` (stereo not shown) [Example 207, 4′-Cyano-N-[6-[(dimethylamino)methyl]-5,6,7,8-tetrahydro-2-naphthalenyl][1,1′-biphenyl]-4-carboxamide] it was 183 to 185 °C; in that of `Cl.O=C(Nc1ccc(CC2CCCNC2)cc1)c1ccc(-c2ccc(F)cc2)cc1` (stereo not shown), 205 °C (dec.); in that of `CC(C)CC1=C(CN(C)C)CCc2cc(NC(=O)c3ccc(-c4ccc(Cl)cc4)cc3)ccc21` [Example 113, 4′-Chloro-N-(6-[(dimethylamino)methyl)-5-isobutyl-7,8-dihydro-2-naphthalenyl][1,1′-biphenyl]-4-carboxamide], 159 to 162 °C. The compound `CN(C)CC1CCc2cc(NC(=O)c3ccc(-c4ccc(NC(=O)C(F)(F)F)cc4)cc3)ccc2C1` (stereo not shown) [Example 31, N-[6-[(N,N-Dimethylamino)methyl]-5,6,7,8-tetrahydro-2-naphthalenyl]-4′-[(trifluoroacetyl)amino][1,1′-biphenyl]-4-carboxamide] displayed a melting point of 235 to 237 °C. For the compound `COc1ccc(-c2ccc(C(=O)Nc3ccc(CC(=O)NCCN(C)C)cc3)cc2)cc1` [Example 193, N-[4-[2-[[2-(Dimethylamino)ethyl]amino]-2-oxoethyl]phenyl]-4′-methoxy[1,1′-biphenyl]-4-carboxamide], the melting point is 196 to 198 °C (dec.). In the case of `CN(C)CC1=Cc2ccc(NC(=O)c3ccc(-c4ccc(Cl)cc4)cc3)cc2C1` [Example 246, 4′-Chloro-N-[2-[(dimethylamino)methyl]-1H-inden-6-yl][1,1′-biphenyl]-4-carboxamide] it was 218 to 220 °C. In the case of `CN(C)CC1=Cc2ccc(NC(=O)CNC(=O)c3ccc(Cl)cc3)cc2CC1` [Example 126, 4-Chloro-N-[2-[[6-[(dimethylamino)methyl]-7,8-dihydro-2-naphthalenyl]amino]-2-oxoethyl]benzamide] it was 168 to 171 °C; in that of `CN(C)CC1CCc2cc(NC(=O)c3ccc(OCc4ccccc4)cc3)ccc2C1` (stereo not shown) [Example 5, 4-(Benzyloxy)-N-[2-(N,N-dimethylamino)methyl-6-tetralinyl]benzamide], 135 to 136 °C. In the case of `O=C(Nc1ccc2c(c1)CCC(CN1CCCC1)=C2)c1ccc(-c2ccc(F)cc2F)nc1` [Example 87, 6-(2,4-Difluorophenyl)-N-[6-[(1-pyrrolidinyl)methyl]-7,8-dihydro-2-naphthalenyl]nicotinamide] it was 169 to 170 °C.
